Measured values: patent publication US7816521B2, “1,2,4-benzotriazine-1,4-dioxides” (Auckland Uniservices Limited, priority 2004, dated 2010)

Assays:
[1] = tested on: hypoxic cells in HT29 tumours; assay: HT29 excision assay (drug after 20 Gy radiation, clonogenic survival); format: in vivo, human; conditions: for HT29 log kill: log10 kill of hypoxic cells in HT29 tumours, additional to radiation alone, MTD or 75% of MTD, Table 2
Source text: In order to test the validity of this PK/PD model as a tool for predicting the antitumour activity of TPZ analogues, the inventors determined the key PK/PD parameters for 13 TPZ analogues, and TPZ itself, for the HT29 human colon carcinoma cell line. These parameters were then used to calculate the expected killing in hypoxic regions of HT29 tumours following a single intraperitoneal dose of the compounds at their maximum tolerated dose. The results of this calculation were then compared with measured killing of hypoxic cells in HT29 tumours, determined by administering the compounds immediately (within 5 min) after gamma irradiation (cobalt 60, 20 Gy) to sterilise oxygenated cells in the tumours. Tumours were removed 18 hours later and the number of surviving cells determined by clonogenic assay. The measured PK/PD parameters, model prediction (using the above 3D microvascular network), and experimentally determined hypoxic cell kill is shown in Table 1, and the relationship between predicted and measured cell kill in FIG. 4. The prediction is statistically highly significant (p=0.001, Fisher exact test). […] If the extravascular transport component was excluded from the model, the R^2 for this regression was only 0.28 and the relationship was not statistically significant.
Animals were treated with radiation alone (RAD, 20 Gy whole body); RAD+TPZ (316 μmol/kg); compound 3 (562 μmol/kg); RAD+compound 3 (562 μmol/kg). Tumours were excised 18 hr after treatment and clonogenic survival determined by staining colonies 14 days later. Each symbol represents a separate tumour. p<0.01 (one way ANOVA with Dunnett's test) for RAD+compound 3 and for RAD+TPZ versus RAD only. Horizontal lines are the historical means for untreated controls (upper line) and 20 Gy radiation only (lower line).
Compounds were evaluated with single dose radiation using s.c. HT29 tumors (average of two largest diameters 7-10 mm) grown by inoculating 10^7 cells (obtained by enzymatic dissociation of multicellular spheroids). Drugs were administered as single i.p. doses at their MTD with the following groups in each experiment. A: vehicle control, B: test drug, C: Radiation (20 Gy, cobalt-60, whole body irradiation), D: TPZ (316 μmol/kg) 5 min after radiation, E: Test drug 5 min after radiation. Each group included 3 (A, B) or 5 (C-E) mice. Tumors were excised 18 hr after treatment and plated to determine clonogenicity. Hypoxic cytotoxicity is determined by the difference in surviving fraction between groups C and E, while comparison of A and B evaluates oxic cell killing. Total yield of clonogens was used as the key parameter if cell yields were affected by treatment. Results of this assay are illustrated for compound 3 (and TPZ) in FIG. 5.

[2] = tested on: HT29 multicellular layers; format: in vitro ADME; conditions: human
Protocol: A: Diagram of a Millicell® CM culture insert used for growing MCLs on a porous, collagen-coated Teflon membrane. B: H&E-stained transverse section of an HT-29 MCL three days after initiating growth with 10^6 cells. The Teflon membrane is ca 30 μm thick. C: Diffusion apparatus for measurement of transport through MCLs. D: Diffusion of TPZ (100 μM) through well oxygenated (open circles) and […] poorly oxygenated (filled circles) HT29 MCLs of equivalent thickness (141±5 μm). Concentrations are normalized to the initial concentration in the donor compartment (Co). The Lines are fits to a reaction-diffusion model. Also shown is the diffusion of compound #20 through a well oxygenated MCL of a similar thickness illustrating the effect of raising the diffusion coefficient from 4×10^−7 cm^2s^−1 to 1.4×10^−6 cm^2s^−1.
The diffusion coefficients in HT29 MCL (DMCL) of compounds representative of the invention were determined either by: • 1. Measurement of drug diffusion in HT29 MCL (grown in culture inserts and seeded at 1×10^6 cells per insert and grown for 3-4 days) in a 2 chamber diffusion apparatus containing culture medium with measurement from both the donor and receiver compartments and gassing at ≧20% O2 to suppress bioreductive metabolism as described in Hicks et al (Cancer Res. 2003, 63, 5970-5977). Samples of medium are taken at intervals, drug concentrations determined by HPLC or LCMS and the concentration-time profile was fitted to Fick's second law of diffusion and the differential equation was solved numerically to obtain the estimate of DMCL.
OR • 2. Calculated from the logistic regression equation
where • a. Log P7.4 is the base 10 logarithm of the octanol-water partition coefficient of the compound at pH 7.4 measured or calculated using the techniques described below • b. HD is the number of hydrogen bond donors (which is the sum of all NH— and OH-groups) • c. HA is the number of hydrogen bond acceptors (which is the sum of all N— and O-atoms) • d. Mr is the molecular weight of the non-ionised drug and a, g, d, a, x0, e, h, and b are regression coefficients as outlined in the table.
Values of the coefficient g are cell line dependent; this value has been determined as 0.3051 (SE 0.0427, CV 13.99%, p<0.001) for SiHa MCLs, and is set at zero for HT29 MCLs.

| Structure (SMILES) | HT29 log kill [1] | DMCL [2] | activity against hypoxic cells in HT29 tumours ([1]; relative to radiation alone) | diffusion coefficient ([2]; 100 μM) | reduction in diffusion in poorly oxygenated versus well oxygenated HT29 MCLs ([2]; 100 μM) [fold] |
| --- | --- | --- | --- | --- | --- |
| CCCN(CCC)CCNc1n[n+]([O-])c2ccccc2[n+]1[O-] [G] | 0.248 | 1.71 × 10^−6 cm^2s^−1 |  |  |  |
| CCc1n[n+]([O-])c2ccccc2[n+]1[O-] [I] | 0.886 | 2.61 × 10^−6 cm^2s^−1 |  |  |  |
| Nc1n[n+]([O-])c2c(Cl)cccc2[n+]1[O-] [D, 8-Chloro-1,2,4-benzotriazin-3-amine 1,4-Dioxide] | −0.154 | 6.69 × 10^−7 cm^2s^−1 |  |  |  |
| Nc1n[n+]([O-])c2cc(Cl)ccc2[n+]1[O-] [C, 7-Chloro-1,2,4-benzotriazin-3-amine 1,4-Dioxide] | −0.007 | 8.70 × 10^−7 cm^2s^−1 |  |  |  |
| CN(CCCNC(=O)c1cccc2ccc(-c3ccncc3)nc12)CCCNc1n[n+]([O-])c2ccccc2[n+]1[O-] [M] | 0.138 | 9.80 × 10^−8 cm^2s^−1 |  |  |  |
| Cc1ccc2c(c1)[n+]([O-])c(NCCCN(C)CCCNC(=O)c1cccc3cc4ccccc4nc13)n[n+]2[O-] [N] | 0.027 | 1.05 × 10^−7 cm^2s^−1 |  |  |  |
| COCCc1n[n+]([O-])c2ccccc2[n+]1[O-] [J] | 0.8 | 2.09 × 10^−6 cm^2s^−1 |  |  |  |
| Cc1ccc2c(c1)[n+]([O-])c(N)n[n+]2[O-] [B, 6-Methyl-1,2,4-benzotriazin-3-amine 1,4-Dioxide] | 2.165 | 5.43 × 10^−7 cm^2s^−1 |  |  |  |
| CS(=O)(=O)c1ccc2c(c1)[n+]([O-])nc(N)[n+]2[O-] [E, 7-(Methylsulfonyl)-1,2,4-benzotriazin-3-amine 1,4-Dioxide] | −0.028 | 2.13 × 10^−7 cm^2s^−1 |  |  |  |
| [O-][n+]1nc(NCCCCCCNc2c3ccccc3nc3ccccc23)[n+]([O-])c2ccccc21 [K] | 0.009 | 6.17 × 10^−7 cm^2s^−1 |  |  |  |
| Cc1ccc2c(c1)[n+]([O-])nc(NCCN(C)C)[n+]2[O-] [F, 7-Methyl-N-[2-(dimethylamino)ethyl]-1,2,4-benzotriazin-3-amine 1,4-Dioxide] | 0.196 | 5.09 × 10^−7 cm^2s^−1 |  |  |  |
| Cc1ccc2c(c1)[n+]([O-])c(NCCN(C)C)n[n+]2[O-] [H, N^1,N^1-Dimethyl-N^2-(6-methyl-1,4-dioxido-1,2,4-benzotriazin-3-yl)-1,2-ethanediamine] | 1.001 | 3.99 × 10^−7 cm^2s^−1 | significant activity |  |  |
| Nc1n[n+]([O-])c2ccccc2[n+]1[O-] [A, tirapazamine, reference compound] | 1.17 | 3.97 × 10^−7 cm^2s^−1 |  | 4×10^−7 cm^2s^−1 | 2 |
| CN(CCCNC(=O)c1cccc2cc3ccccc3nc12)CCCNc1n[n+]([O-])c2ccccc2[n+]1[O-] [L] | −0.051 | 3.82 × 10^−7 cm^2s^−1 |  |  |  |
